Patent publication US11220534B2, “Treatment of neurological diseases” (Lancaster University Business Enterprises Limited, priority 2016, dated 2022)
Where no end group is shown, it is not given here. [ ]: non-standard residue; d: D form. Aib = CC(C)(N)C(=O)O

Experiments:
APP/PS1 mice [1] = assay: Reversal Morris water maze test; type: in vivo
Text: Materials and methods in Example 2 are the same as Example 1 except when stated. Reagents used in Example 2 only include antibodies to p-PI3Kp85, PI3Kp85, p-Akt (ser473), Akt, p-GSK3β (Y216), and GSK3β from Abcam, Inc. Cambridge, UK. The antibody to p-tau (AT8) from Thermo Scientific USA. Mouse Anti-β-actin, Anti-Rabbit IgG, Anti-mouse IgG, CY3-Anti-mouse IgG, RIPA Lysate, BCA Protein Assay Kit, DAPI staining solution and Anti-fluorescence decay agent from Boster (Wuhan, China).
Classical Morris water maze (MWM) test was used to investigate spatial reference memory of mouse. The water maze mainly included a stainless steel pool and a platform in the pool for escape. There were several landmarks fixed to the walls of the water maze. The pool was filled with tap water at 22±2° C. The first phase was acquisition trial phase which was consisted of five training days (days 1-5) and four trials each day. The pool (diameter, 120 cm; high, 50 cm) was divided into four quadrants and the escape platform (diameter, 12 cm) hidden 1 cm beneath the water surface was placed in the center of the first quadrant. […] The escape latencies were recorded by Ethovision 3.0 software system (Noldus Information Technology, the Netherlands). […] The percentage of swimming time in target quadrant (the first quadrant) and frequency of platform crossing were recorded. […] Swimming time to target was recorded.

APP/PS1 mice [2] = assay: Y-maze test for working memory in AD mice; type: in vivo; details: FIG. 6, N=8-14 per group
Text: Materials and methods in Example 2 are the same as Example 1 except when stated. Reagents used in Example 2 only include antibodies to p-PI3Kp85, PI3Kp85, p-Akt (ser473), Akt, p-GSK3β ([…]), and GSK3β from Abcam, Inc. Cambridge, UK. The antibody to p-tau (AT8) from Thermo Scientific USA. Mouse Anti-β-actin, Anti-Rabbit IgG, Anti-mouse IgG, CY3-Anti-mouse IgG, RIPA Lysate, BCA Protein Assay Kit, DAPI staining solution and Anti-fluorescence decay agent from Boster (Wuhan, China). Spatial working memory was assessed by recording spontaneous alternation behaviour in a Y-maze. The maze was made of three 30 cm long, 7 cm high, 15 cm wide arms and the arms converged in an equilateral triangular central area. Each mouse was placed at the central triangular area and allowed to move freely through the maze during an 8-min session. The total arm entries and arm order was recorded by Smart 3.0 software system. Alternation was defined as successive entries into the three arms, on overlapping triplet sets. The percent alternation was calculated as the ratio of actual to possible alternations (defined as the total number of arm entries minus 2) multiplied by 100.

YXEGTFTSDYSIYLDKQAAXEFVNWLLAGGPSSGAPPPSKRRQRRKKRGY-NH2 (Y[Aib]EGTFTSDYSIYLDKQAA[Aib]EFVNWLLAGGPSSGAPPPSKRRQRRKKRGY-NH2) [DA5, No. 12; X=aminoisobutyric acid]
probe test, recall of a change in escape route (reverse Morris water maze) (APP/PS1 mice [1]; APP/PS1 mice vs APP/PS1-saline, FIG. 8c, 8d): recalled a change in escape route to a greater extent than APP/PS1-saline mice | cognitive flexibility and ability to relearn (reverse Morris water maze) (APP/PS1 mice [1]; APP/PS1 mice, FIG. 8, N=8-14 per group): protects APP/PS1 mice from decreased cognitive flexibility and restores their ability to relearn | spatial working memory (percent alternation, Y-maze) (APP/PS1 mice [2]): improved spatial working memory
